Target: T1, Caspase-1 (Homo sapiens, UniProt P29466)
T1 sequence (P29466 whole entry): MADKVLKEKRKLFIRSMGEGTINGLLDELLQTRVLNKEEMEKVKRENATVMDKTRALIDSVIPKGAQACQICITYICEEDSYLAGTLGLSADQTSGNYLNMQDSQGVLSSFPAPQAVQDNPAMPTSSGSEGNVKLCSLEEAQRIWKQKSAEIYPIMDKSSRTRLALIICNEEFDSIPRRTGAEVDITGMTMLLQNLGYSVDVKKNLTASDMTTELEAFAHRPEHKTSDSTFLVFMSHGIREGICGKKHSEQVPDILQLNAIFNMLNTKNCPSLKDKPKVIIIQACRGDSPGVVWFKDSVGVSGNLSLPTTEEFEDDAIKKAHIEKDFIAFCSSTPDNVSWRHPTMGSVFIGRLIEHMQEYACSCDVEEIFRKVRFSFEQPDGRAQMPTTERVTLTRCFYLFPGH
Experiment: Caspase Inhibition Assay
Conditions: pH 7; 37 °C
Experimental: The substrate peptides terminating in AMC are processed by caspases with or without inhibitors, and the accumulation of AMC was assessed with a Cytofluor fluorescent plate reader at excitation and emission wavelengths of 380 and 460 nm. Compounds were tested, and full IC50 curves were run for all compounds expressing measurable inhibitory activity.

| SMILES | Ki [µM] |
| --- | --- |
| O=C(O)C[C@H](NS(=O)(=O)c1ccccc1)C(=O)CSCCCc1ccccc1 [(3S)-3-benzenesulfonamido-4-oxo-5-[(3-phenylpropyl)sulfanyl]pentanoic acid] | 24 |
| O=C(O)C[C@H](NS(=O)(=O)c1ccccc1)C(=O)CCCCCc1ccccc1 [(3S)-3-benzenesulfonamido-4-oxo-9-phenylnonanoic acid] | 24 |
| O=C[C@H](CC(=O)O)NS(=O)(=O)c1ccccc1 [(3S)-3-benzenesulfonamido-4-oxobutanoic acid] | 9.4 |
| Cc1ccc(-c2ccccc2S(=O)(=O)N[C@H](C=O)CC(=O)O)cc1 [(3S)-3-{[2-(4-methylphenyl)benzene]sulfonamido}-4-oxobutanoic acid] | 7.2 |
| O=C[C@H](CC(=O)O)NS(=O)(=O)c1ccccc1-c1cccc2ccccc12 [(3S)-3-{[2-(naphthalen-1-yl)benzene]sulfonamido}-4-oxobutanoic acid] | 6.9 |
| O=C(O)C[C@H](NC(=O)OCc1ccccc1)C(=O)CSCCCc1ccccc1 [(S)-3-Benzyloxycarbonylamino-4-oxo-5-(3-phenyl-propyl-sulfanyl)-pentanoic acid] | 25 |
| O=C(O)C[C@H](NC(=O)OCc1ccccc1)C(=O)CCCCCc1ccccc1 [(S)-3-Benzyloxycarbonylamino-4-oxo-9-phenyl-nonanoic acid] | 119 |

Further compounds by falling Ki, results first:

| Ki [µM] | SMILES |
| --- | --- |
| 6.8 | Cc1ccccc1-c1ccccc1S(=O)(=O)N[C@H](C=O)CC(=O)O [(S)-3-(2-Methyl-biphenyl-2-sulfonylamino)-4-oxo-butyric acid] |
| 3.1 | Cc1cccc(-c2ccccc2S(=O)(=O)N[C@H](C=O)CC(=O)O)c1 [(3S)-3-{[2-(3-methylphenyl)benzene]sulfonamido}-4-oxobutanoic acid] |
| 1.9 | Cc1cccc(S(=O)(=O)N[C@H](C=O)CC(=O)O)c1-c1ccccc1 [(S)-3-(6-Methyl-biphenyl-2-sulfonylamino)-4-oxo-butyric acid] |
| 0.011 | CC(=O)N[C@@H](Cc1ccc(O)cc1)C(=O)N[C@H](C(=O)N[C@@H](C)C(=O)N[C@@H](CC(=O)O)C(=O)CCCCCc1ccccc1)C(C)C [(3S)-3-[(2S)-2-[(2S)-2-[(2S)-2-acetamido-3-(4-hydroxyphenyl)propanamido]-3-methylbutanamido]propanamido]-4-oxo-9-phenylnonanoic acid] |
